The results in this text go back to patent publication US7273846B2, “Selective melanin-concentrating hormone type-1 receptor agonists” (priority 2002, dated 2007).

In experiment [1] the target is T1, MCH-1R (Homo sapiens, UniProt Q99705). The experiment is described as follows: Aequorin bioluminescence functional assay, 293AEQ17/MCH-1R cells. The experiment is classed as cell-based. Set-up: expressed in transfected cells. The method, then:
(§1) The aequorin bioluminescence assay is a reliable test for identifying G-protein-coupled receptors that couple through the G protein subunit family consisting of Gq and G11. Gq and G11 coupling leads to the activation of phospholipase C, mobilization of intracellular calcium, and activation of protein kinase C.
Stable cell lines expressing either the MCH-1R or the MCH-2R and the aequorin reporter protein were used. The assay was performed using a Luminoskan RT luminometer (Labsystems Inc., Gaithersburg, Md.) controlled by custom software written for a Macintosh PowerPC 6100.
(§2) The cells were harvested, washed once in ECB medium, and resuspended to 500,000 cells/mL. 100 μL of cell suspension (corresponding to 5×10^4 cells) was then injected into the test plate containing the hMCH peptides, and the integrated light emission was recorded over 30 seconds, in 0.5-s units. 20 μL of lysis buffer (0.1% final Triton X-100 concentration) was then injected and the integrated light emission recorded over 10 seconds, in 0.5-s units. The “fractional response” values for each well were calculated by taking the ratio of the integrated response to the initial challenge to the total integrated luminescence including the Triton X-100 lysis response.

The target of experiment [2] is T2, MCH-2R (Homo sapiens, UniProt Q969V1). The experiment in a line: Aequorin bioluminescence functional assay, 293AEQ17/MCH-2R cells. In kind it is cell-based. Set-up: expressed in transfected cells; MCH-2R Activation %: concentration or dose not given beside the values. The settings on record: human MCH = 100.
T2 sequence (Q969V1 whole entry): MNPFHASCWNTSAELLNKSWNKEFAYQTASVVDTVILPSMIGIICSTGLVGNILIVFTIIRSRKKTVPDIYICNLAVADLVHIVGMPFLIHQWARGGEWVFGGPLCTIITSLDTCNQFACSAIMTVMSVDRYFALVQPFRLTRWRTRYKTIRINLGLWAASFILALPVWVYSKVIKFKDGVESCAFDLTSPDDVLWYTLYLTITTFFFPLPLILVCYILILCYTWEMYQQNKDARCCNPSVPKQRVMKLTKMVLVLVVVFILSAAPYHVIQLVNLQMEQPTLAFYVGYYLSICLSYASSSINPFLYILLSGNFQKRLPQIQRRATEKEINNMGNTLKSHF
Text: as §1
Stable cell lines expressing either the MCH-1R or the MCH-2R and the aequorin reporter protein were used.
as §2

Experiment [3] deals with T1, MCH-1R. The settings on record: binding ratio.
Experimental: (§3) For transient expression, COS-7 cells were cultured in Dulbecco's modified Eagle medium (Gibco BRL, Rockville, Md.) with 10% heat inactivated fetal calf serum.
(§4) A suspension of 7×10^6 COS-7 cells were transfected with 20 μg of pCI-neo/MCH-2R plasmid by electroporation and cells were harvested after 60-72 hours. Membranes were prepared from transient and stable transfectants by hypotonic lysis, frozen in liquid nitrogen, and stored at −80° C.
(§5) Assays were optimized with respect to membrane preparations: for CHO/MCH-1R membranes, 1 μg of membranes per well yielded a>6× specific binding window and for COS or CHO MCH-2R membranes, 8 μg of membrane protein yielded a window of about 3×.
(§6) Specific binding is defined as the difference between total binding and non-specific binding conducted in the presence of 500 nM unlabeled hMCH. […] After equilibrating at room temperature for 3 hours, the plates were read in a TopCount (Packard, Meriden, Conn.). IC50 calculations were performed using Prism 3.0 (GraphPad. Software, San Diego, Calif.). The IC50 values were measured in three different experiments.
Experiment [4] addresses T1, MCH-1R. The experiment is described as follows: biochemical.
Experimental: as §3, §4, §5, §6
Experiment [5] has as its target T2, MCH-2R. The experiment is described as follows: Radioligand binding assay (SPA), MCH-2R. The settings on record: MCH-2R IC50, [125I]-[Phe13,Tyr19]-hMCH SPA, COS or CHO MCH-2R membranes.
Experimental: as §3, §4, §5, §6

Residues, ends and D or L forms follow the SMILES beside them.

T1 sequence (Q99705 whole entry): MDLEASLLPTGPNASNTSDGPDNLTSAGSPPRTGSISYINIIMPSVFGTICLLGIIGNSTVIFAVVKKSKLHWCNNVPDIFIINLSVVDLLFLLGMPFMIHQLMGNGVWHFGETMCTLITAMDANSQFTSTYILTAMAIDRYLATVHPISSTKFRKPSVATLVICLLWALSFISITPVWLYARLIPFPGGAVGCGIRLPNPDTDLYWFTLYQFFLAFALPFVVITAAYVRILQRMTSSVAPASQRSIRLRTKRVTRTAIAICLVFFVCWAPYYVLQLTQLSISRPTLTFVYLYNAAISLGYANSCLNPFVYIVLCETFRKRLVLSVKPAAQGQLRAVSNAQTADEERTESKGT

`CSCC[C@@H]1NC(=O)[C@@H](NC(=O)[C@H](CCCNC(=N)N)NC(C)=O)CSSC[C@@H](C(N)=O)NC(=O)[C@@H]2CCCN2C(=O)[C@H](CCCNC(=N)N)NC(=O)[C@H](Cc2ccc(O)cc2)NC(=O)[C@H](C(C)C)NC(=O)[C@H](CCCNC(=N)N)NC(=O)[C@H](Cc2ccccc2)NC(=O)[C@H](CC(C)C)NC1=O` [SEQ. ID. NO. 20] (HELM PEPTIDE1{[ac].R.C.M.L.F.R.V.Y.R.P.C.[am]}$PEPTIDE1,PEPTIDE1,3:R3-12:R3$$$V2.0): at MCH-1R [1] (activity ratio), the “Selectivity 2/1 (MCH-2R/MCH-1R EC50 activity ratio)” value came out at 0.75. For the same compound, the EC50 on MCH-1R [1] (aequorin, 293AEQ17/MCH-1R cells, read-out: MCH-1R EC50) amounted to 66 nM. For the same compound, the “MCH-1R Activation %” value on MCH-1R [1] (human MCH = 100, activation at 10 μM concentration) worked out at 75%. The “MCH-2R Activation %” value at MCH-2R [2] is recorded as 88%. Also, the “Selectivity 2/1 (MCH-2R/MCH-1R IC50 binding ratio)” value at MCH-1R [3] amounted to 19. Also, the concentration for half-maximal inhibition (IC50) against MCH-1R [4] is 0.1 nM; at MCH-2R [5], 1.9 nM.

The EC50 is the concentration at which the effect is half-maximal. Usually IC50 stands for the point on the concentration scale where inhibition reaches its midpoint.
